First: O=C(NO)c1ccc(CNC(=O)c2[nH]c(-c3ccccc3)cc2-c2ccc(F)c(F)c2)cc1
Second: COC(=O)C[C@H]1C[C@@H](CCc2c(-c3ccc(F)cc3)c(-c3ccccc3)c(C(=O)NCc3ccccc3)n2C(C)C)OC(C)(C)O1
The melting point of the first is higher: 148 to 150 °C for the first, 65 to 67 °C for the second.

First: COc1ccc(C)cc1NC(=O)Nc1ccc(N2CCN(C(N)=O)CC2)cc1
Second: COC(=O)C1=C(CCc2ccccc2OC)NC(CC(=O)N2CCN(CCCN(C)C)CC2)=C(C(=O)OC)C1c1c(Cl)cccc1Cl (configuration not stated)
The melting point of the first is lower: 136 °C for the first, 156 to 158 °C for the second.

First: COC(=O)C1=C(C=O)NC(C)=C(C(=O)OCC(C)C)C1c1ccccc1C#N (configuration not stated)
Second: C[C@H](NC(=O)OC(C)(C)C)C(=O)OC[C@@H]1CCCN1c1cccc2c1C(=O)c1ccccc1C2=O
The melting point of the first is higher: 152 to 154 °C for the first, 110 °C for the second.

Compared with `Brc1ccc2c(c1)/C(=C/CCN1CCCC1)c1cc(Br)ccc1OC2`, `COc1ccc2c(c1)C(N1CCN(C)CC1)c1ccccc1CC2` (configuration not stated) is higher in melting point: 102 to 103 °C for the first, 119 to 120 °C for the second.

Compared with `CC(CCCC(C)(C)O)C1CCC2C3=CC=C4CC(O)C5OC5C4(C)C3CCC21C` (configuration not stated), `COC(=O)CC1(O)CC2CCC1(CS(=O)(=O)N1CCC3(C=Cc4ccccc43)CC1)C2(C)C` (configuration not stated) is lower in melting point: 173 to 175 °C for the first, 81 to 83 °C for the second.

Compared with `ClCCOc1ccc2c(c1)CCC2`, `C=CCOc1cc(COC2CCCCO2)ccc1OCCI` (configuration not stated) is higher in melting point: 45 to 46 °C for the first, 103 to 104 °C for the second.

First: CC(C)(C)OC(=O)NCCCn1c(CCCOc2ccccc2)nc2c(N)nc3ccccc3c21
Second: OCCCOc1cc(-c2ccccc2)cc(-c2ccccc2)n1
The melting point of the first is higher: 151 to 153 °C for the first, 94 °C for the second.

First: c1ccc(N=C(NC(=Nc2ccccc2)N2CCCCO2)c2ccccc2)cc1
Second: COc1cnc(OC(c2ccccc2)(c2ccccc2)c2ccccc2)cc1OC1CCCC1
The melting point of the first is higher: 187 to 190 °C for the first, 132 to 133 °C for the second.

First: CCCc1c(OCCCc2ccc3cc(OC)c(OC)cc3c2)ccc(C(=O)O)c1O
Second: COc1ccc(C(=CN2CCNC2=O)c2ccccc2)cc1OC
The melting point of the first is higher: 165 to 168 °C for the first, 155 °C for the second.

First: CCc1cc2c(c(CC)n1)CCC(=O)N2Cc1ccc(Oc2ccccc2CC(=O)O)cc1
Second: CCc1c(C(=O)C(C)C)c2ccc(C#N)cc2n1Cc1ccccc1Cl
The melting point of the first is lower: 122 to 124 °C for the first, 132 to 134 °C for the second.

First: O=C1NC(SCC#CCc2ccccc2)C1NC(c1ccccc1)(c1ccccc1)c1ccccc1 (configuration not stated)
Second: COC1Cn2ccc(=O)c(OCc3ccccc3)c2C(c2ccccc2)O1 (configuration not stated)
The melting point of the first is lower: 145 to 146 °C for the first, 202 to 204 °C for the second.

First: CN1CC(=O)N(C)C1=NC(=O)Nc1cccc(Cl)c1
Second: COC(=O)C1(Cl)CC(=O)N(c2ccc(Cl)cc2)C1=C(Cl)Cl (configuration not stated)
The melting point of the first is lower: 134 to 137 °C for the first, 159 °C for the second.

Compared with `O=C1c2cccc(NC(=S)Nc3cc[nH]n3)c2C2CC3(CCN12)SCCS3` (configuration not stated), `CN1CCC(NC(=O)c2cc(Cl)cc3oc(-c4ccccc4)nc23)CC1` is lower in melting point: 185 °C for the first, 170 to 172 °C for the second.

First: Cc1c(C)c2c(c(C)c1NC(=O)OC(C)(C)C)C(=O)C(C)(C)O2
Second: COC(=O)c1c(C)c(OC)cc(O[Si](C)(C)C(C)(C)C)c1C=O
The melting point of the first is lower: 105 to 106 °C for the first, 125 to 131 °C for the second.

Compared with `Cc1ccc(S(=O)(=O)N(C)c2ccc(C)c([N+](=O)[O-])c2)cc1`, `Cc1ccc(S(=O)(=O)N2CC2)cc1` is lower in melting point: 104 to 106 °C for the first, 51 to 52 °C for the second.

First: OCC=Cc1ccc(-c2ccc(OC(F)(F)F)cc2)cc1
Second: COc1ccc2c(-c3ccc(OC(C)=O)cc3)c(-c3ccc(C(F)(F)F)cc3)c(=O)oc2c1
The melting point of the first is lower: 121 to 123 °C for the first, 198 to 201 °C for the second.

Compared with `Cn1cccc1C(=O)Nc1cccc(C=CC(=O)N2CC(CCl)c3ccc([N+](=O)[O-])cc32)c1` (configuration not stated), `O=C(Nc1ccc2c(c1)CCNO2)c1cc2cc(F)ccc2n1Cc1cccc(F)c1` is higher in melting point: 215 °C for the first, 216 to 217 °C for the second.

First: Fc1ccccc1-c1ccc2nnn(Cc3ccc4ncccc4c3)c2n1
Second: C(=C\c1cc(/C=C/c2ccccc2-c2cccnc2)[nH]n1)/c1ccc2cc[nH]c2c1
The melting point of the first is lower: 164 to 166 °C for the first, 248 to 255 °C for the second.

First: CS(=O)(=O)Nc1cc2c(cc1Oc1ccc(F)cc1F)C(O)CC2 (configuration not stated)
Second: Cc1c(S(=O)(=O)Nc2ccc(-c3nc(C(=O)O)cs3)cc2S(C)(=O)=O)sc2ccc(F)cc12
The melting point of the first is lower: 119 °C for the first, 257 to 258 °C for the second.

First: COc1ccccc1-c1ncsc1C(=O)O
Second: Cc1c(C(=O)O)cnn1-c1nc(-c2ccccc2C(F)(F)F)cs1
The melting point of the first is lower: 170 to 172 °C for the first, 216 °C for the second.

First: O=C(NC(c1ccccc1)c1cc2ccncc2[nH]1)c1ccccc1 (configuration not stated)
Second: O=C(c1ccccc1F)c1cc(Cl)ccc1CSc1ccccc1
The melting point of the first is higher: 206 to 208 °C for the first, 81 to 82 °C for the second.

First: CNC(=O)CC(O)(c1ccc(Br)cc1)c1cccnc1 (configuration not stated)
Second: CC(C)(C)c1ccc(-n2cc(C(=O)O)c(=O)c3ccc(-c4ccncc4)cc32)cc1
The melting point of the first is lower: 188 to 191 °C for the first, 251 to 252 °C for the second.

Compared with `Cc1cccc(S(=O)(=O)n2c(CCC(=O)O)cc3cc(Cl)ccc32)c1`, `CCN(CC)C(=O)c1cc2ccccc2c(-c2cccc(Cl)c2)n1` is lower in melting point: 161 to 165 °C for the first, 116 °C for the second.

First: CCCCNC(=O)CCC(=O)c1ccccc1
Second: CCCCCCOc1ccc(C(=O)O)cc1Cl
The melting point of the first is lower: 78 to 80 °C for the first, 140 °C for the second.

First: Cc1cc2c(=O)[nH]c(CCl)nc2cc1Cl
Second: Cc1cc2nc(C)n(COC(=O)C(C)(C)C)c(=O)c2cc1CBr
The melting point of the first is higher: 287 to 290 °C for the first, 149 to 152 °C for the second.

First: CCCCCS(=O)(=O)NC(=O)c1ccc2nc(C)n(Cc3ccc(N(C)CC)cc3Cl)c2n1
Second: CCCCc1ncc(/C=C2\C(=O)NC(=O)N2Cc2cccs2)n1Cc1ccc(C(=O)OC)cc1
The melting point of the first is lower: 148 to 149 °C for the first, 164 to 165 °C for the second.

First: Cc1cc(C)c(Nc2nc(C)ccc2S(=O)(=O)c2ccc(-c3ccccc3)cc2)c(C)c1
Second: CS(=O)(=O)c1ccc(-n2nc(C(F)(F)F)cc2-c2ccc(-c3ccoc3)cc2)cc1F
The melting point of the first is higher: 140 to 141 °C for the first, 74 to 76 °C for the second.

Compared with `CCCCCCCCc1ccc(CCC(NC(C)=O)(C(=O)OCC)C(=O)OCC)s1`, `CCOC(=O)C(CCCCCCN1C(=O)c2ccccc2C1=O)(NC(C)=O)C(=O)OCC` is higher in melting point: 57 to 58 °C for the first, 68.5 to 70 °C for the second.

First: Cc1csc2ccc3c(c4c(n3CCCN(C)C)CCNC4)c12
Second: Cc1c(SCCN2CCOCC2)ccnc1CSc1nc2ccccc2n1C(=O)N(C)C
The melting point of the first is lower: 92 °C for the first, 117 to 119 °C for the second.

First: CSN(C=C(C#N)C#N)c1cccc(C(C)=O)c1
Second: COc1ccc(C=C=C(C)C(=O)O)cc1
The melting point of the first is higher: 165 to 166 °C for the first, 105 to 108 °C for the second.

First: CN(C(=O)c1nsc2ccc(-n3c(=O)cc(C(F)(F)F)n(C)c3=O)cc12)S(C)(=O)=O
Second: CC(O)c1cc2c(n1C)C(=O)c1cccc(O)c1C2=O (configuration not stated)
The melting point of the first is lower: 120 to 122 °C for the first, 219 to 220 °C for the second.

Compared with `O=C(c1ccc(-c2cc(Cl)ccc2OCc2ccccc2)cc1C(F)(F)F)N1CCCC1`, `FC(F)(F)c1cccc(N2CCC(N=Cc3cccc4ccccc34)=N2)c1` is higher in melting point: 143 to 144 °C for the first, 173 °C for the second.

Compared with `COc1cc(C2c3cc4c(cc3C(NC3=CC(=O)N(Cc5ccc(F)cc5)C3=O)C3COC(=O)C23)OCO4)cc(OC)c1O` (configuration not stated), `Cc1ccc2oc(C(=O)N[C@H]3CCN(C(=O)c4cc(C(F)(F)F)cc(C(F)(F)F)c4)[C@H](Cc4ccc(Cl)cc4)C3)cc(=O)c2c1` is higher in melting point: 214 to 216 °C for the first, 240 to 241 °C for the second.

Compared with `O=C(O)c1ccc2c(c1)Sc1ccccc1O2`, `COc1ccc2sc3ccccc3c2c1` is lower in melting point: 253 °C for the first, 54 to 55 °C for the second.

Compared with `O=C(Nc1ccc(OCCCc2cccnc2)c2ccccc12)c1cc(F)cc(N2CCOCC2)c1`, `O=C(O)[C@@H]1CN(CCn2c(=O)ccc3c(F)cc(F)cc32)CC[C@H]1NCc1cc2c(cn1)OCCO2` is higher in melting point: 64 to 66 °C for the first, over 190 °C for the second.

First: N#Cc1cc(F)c2ncc(C(=O)NCc3ccc(Cl)cc3)c(O)c2c1
Second: O=C1Cn2cncc2CN1Cc1ccc(F)cc1
The melting point of the first is higher: over 300 °C for the first, 112 to 114 °C for the second.

First: COc1ccc(C2(C#N)CCC(=C3SCCCS3)CC2)cc1OC1CCCC1 (configuration not stated)
Second: CN(C)C(=O)C1=C(C(=O)Nc2ccc(Br)cc2F)CCCC1
The melting point of the first is higher: 115 to 116 °C for the first, 83 to 85 °C for the second.

Compared with `CC(=O)SC(C)CNC(=O)c1cc(Cl)cc(C)c1NC(=O)c1cc(C(F)(F)F)nn1-c1ncccc1Cl` (configuration not stated), `Cc1ncc(C(=O)N(C)Cc2cc(C(F)(F)F)cc(C(F)(F)F)c2)c(-c2ccccc2Br)n1` is lower in melting point: 137 to 139 °C for the first, 122 °C for the second.

Compared with `CC(=O)c1ccc(S(=O)(=O)Nc2cc(C)on2)cc1`, `COc1ccc2ccc3c(c2c1)CC(NC(C)=O)CO3` (configuration not stated) is lower in melting point: 189 to 190 °C for the first, 186 °C for the second.

First: CCNC(=O)c1cccc(F)c1N
Second: CCOC(=O)N1CCC(Nc2ccc(F)cc2[N+](=O)[O-])CC1
The melting point of the first is lower: 60 °C for the first, 115 to 116 °C for the second.

First: O=C(O)CN1C(=O)C(=Cc2ccc(-c3ccccc3)cc2)SC1=S
Second: OCc1cccc2nc(-c3ccccc3)sc12
The melting point of the first is higher: 258 to 262 °C for the first, 101 to 102 °C for the second.

Compared with `CC(Oc1ccc(CCNCC(O)COc2ccccc2)cc1)C(N)=O` (configuration not stated), `CCN1CCC(CC(=O)NOC(C)(C)C)(S(=O)(=O)c2ccc(Oc3ccccc3)cc2)CC1` is higher in melting point: 117 to 119 °C for the first, 152 to 155 °C for the second.

Compared with `O=C1C(=O)c2ccc(-c3cccc(C(F)(F)F)c3)cc2C2=C1SCC1(CCNCC1)O2`, `CS(=O)(=O)c1ccc(C2=C(c3ccc(F)cc3)CC3(CCC3)C2)cc1` is lower in melting point: 199 to 203 °C for the first, 123 to 124 °C for the second.

First: COc1cc(OC)nc(OC(C(=O)O)C2c3ccccc3CC2C)n1 (configuration not stated)
Second: CCOC(=O)[C@H]1CCC(=O)[C@@H](n2nc(-c3c(-c4ccccc4)nn4ccccc34)ccc2=O)C1 (relative stereo)
The melting point of the first is lower: 148 to 151 °C for the first, 160 to 162 °C for the second.

First: CCCc1ccc(-c2cc(F)c(-c3ccc(CCC)s3)c(F)c2)cc1
Second: CS(=O)(=O)Cc1cc(C(=O)C=O)ccc1OCc1ccccc1
The melting point of the first is lower: 64 °C for the first, 108 to 110 °C for the second.

Compared with `CC(=O)C(CSC(=S)N(C)C)=C(C)O`, `CC(=O)OCC1CC(Nc2cc(Cl)c(Cl)cc2[N+](=O)[O-])C(OC(C)=O)C1OC(C)=O` (configuration not stated) is higher in melting point: 70 to 72 °C for the first, 128 to 130 °C for the second.

Compared with `CCOc1cccc(NCCSCc2[nH]cnc2C)n1`, `CNc1nc(N)nc(OCC(F)(F)F)n1` is higher in melting point: 172 °C for the first, 204 to 205 °C for the second.

First: NNc1nnc(Cl)cc1N
Second: Nc1cc(Oc2ccc(C(F)(F)F)cc2Cl)ccc1[N+](=O)[O-]
The melting point of the first is higher: 190 °C for the first, 86 to 92 °C for the second.

In the case of `O=C1CSc2cc(C(O)(C(F)(F)F)C(F)(F)F)ccc2N1`, the melting point is reported as 230 to 232 °C.

— a melting point compilation (Tetko et al.; mined from patent text by program, amines drawn as free bases though some values may be those of a salt)
